Source: patent publication EP4732907A1, “STYRYL BENZOTHIAZOLIUM SALTS AND ITS USES AGAINST PARASITIC INFECTIONS” (priority 2024, dated 2026)

Tests used:
Type in all cases: cell-based
[1] = system: MRC-5 cell line; test: Cytotoxicity assay in MRC-5 cell line (alamarBlue assay, 72 h); details: Homo sapiens, MRC5, Table 3
Procedure: Cell culture: Cell culture media were purchased from Gibco (Grand Island, NY, USA). Fetal bovine serum (FBS) was a product of Harlan-Seralab (Belton, U.K.). Supplements and other chemicals not listed in this section were obtained from Sigma Chemicals Co. (St. Louis, Mo., USA). Plastics for cell culture were supplied by Thermo Scientific™ BioLite. All tested compounds were dissolved in DMSO at a concentration of 10 mg/mL and stored at -20°C until use. Cell lines were maintained in Dulbecco's modified Eagle's medium (DMEM) containing glucose (1 g/L), glutamine (2 mM), penicillin (50 IU/mL), streptomycin (50 µg/mL) and amphotericin (1.25 µg/mL), supplemented with 10% FBS.
The stock solutions of the compounds were prepared in DMSO, with the final DMSO concentration in each well maintained below 1%. […] Subsequently, the compounds were added at various concentrations ranging from 0 to 100 µM, and the plates were incubated for 72 h. After the incubation period, 20 µL of resazurin solution (110 ng/ml) were added to each well and cells were incubated for 4 h. Then, cells were lysed with 50 µL/well of 3% SDS. The plate was incubated at 37 °C for an additional hour and subsequently, the fluorescence intensity was measure at the Infinite F200 plate reader (TECAN Austria, GmbH), exciting at 550 nm and recording the emission at 590 nm. […] Data are presented as the average of at least three independent measurements, each conducted in triplicate conditions.

[2] = system: Bloodstream forms (BSF) of T. brucei brucei 'single marker' S427 (S16); test: In vitro antitrypanosomal activity against Trypanosoma brucei (alamarBlue assay, 72 h); details: Table 3; IC50 MRC-5 / IC50 T.brucei
From the text: Data were presented as the average of at least three independent measurements, each conducted in triplicate conditions.

[3] = system: L. major promastigotes (LucRE9); test: In vitro antileishmanial activity against Leishmania major promastigotes (MTT-based assay, 72 h); details: Table 3; for IC50: Leishmania major, promastigotes, 72 h, MTT
Procedure: Parasite culture: L. major promastigotes (LucRE9) were cultured at 28 °C in 5% CO2 in modified RPMI-1640 medium (Invitrogen, Carlsbad, CA) with 10% hiFBS.
The anti-leishmanial activity of the compounds was determined using MTT-based assay (Sigma-Aldrich) (Antimicrob Agents Chemother 2011, 55, 3838-3844). The stock solutions of the compounds were prepared in DMSO with a final DMSO percentage in each well maintained below 1%. 4 × 10^6 parasites per mL were incubated at 28 °C in 96-well plates (50 µL/well) either alone or in the presence of increasing concentration of compounds DMSO for 72 h. After the incubation period, 10 µL of MTT (5 mg/ml) was added to each well and parasites were incubated for 4 h at 28°C. Subsequently, cell lysis was performed using 50 µL/well of 20% SDS. The plate was then incubated at 37 °C for an additional hour and then absorbance was measured at a wavelength of 540 using an Infinite F200 plate reader (TECAN Austria, GmbH). The IC50 was calculated as described above. Data were presented as the average of at least three independent measurements, each conducted in triplicate conditions.

[4] = system: THP1 cells (human monocytic cell line); test: Cytotoxicity assay on PMA-differentiated THP1 (alamarBlue assay, 72 h); details: THP-1, Table 4, PMA-differentiated THP1, 72 h
Procedure: Post-differentiation, the cells were washed and fresh medium was added (100 µL/well) before being reincubated. […] Data represent the average of three independent experiments, each conducted in triplicate.

[5] = system: Leishmania major amastigotes; test: In vitro antileishmanial activity against Leishmania major amastigotes in THP1 cells (luciferase assay, 72 h); details: Table 4
Procedure: The antiparasitic activity of the compounds against the intracellular form of Leishmania major was evaluated using the Luciferase Assay System kit from Promega. […] Post-differentiation, the cells were washed and fresh medium was added (100 µL/well) before being reincubated. […] The plates were then incubated at 35°C in 5% CO2. After 24 hours, the wells were washed three times with PBS, and fresh medium with increasing concentrations of compounds was added (100 µL/well). After another 72 hours of incubation, the cells were then treated with 25 µL of lysis buffer and stored at -80°C. Following 24 hours, 25 µL of luciferase enzyme substrate was added to each well, and the luciferase activity of the amastigotes was determined using a TECAN Infinite F200 microplate reader. […] Data represent the average of three independent experiments, each conducted in triplicate.

## C[n+]1c(/C=C/c2ccc(N(c3ccccc3)c3ccccc3)cc2)sc2ccccc21 [Compound 2]
[1]
  IC50: 5.13 ± 0.76 µM
[2]
  Selectivity Index (SI) T.brucei: 15.1
[3]
  IC50: 0.02 ± 0.011 µM
[3]; IC50 MRC-5 / IC50 L.major promastigotes
  Selectivity Index (SI) L.major: 252.0
[4]
  IC50: 0.93 ± 0.02 µM
[5]; Leishmania major, THP-1, intracellular amastigotes in THP1 macrophages, 72 h, read-out: IC50 (uM) L. major
  IC50: 0.0281 ± 0.00473 µM
[5]; IC50 MRC-5 / IC50 L.major amastigotes
  Selectivity Index (SI) MRC-5: 182
[5]; IC50 THP-1 / IC50 L. major amastigotes
  Selectivity Index (SI) THP-1: 33

## C[n+]1c(/C=C/c2cc3c4c(c2)CCCN4CCC3)sc2ccccc21 [Compound 3]
[1]
  IC50: 0.08 ± 0.03 µM
[3]
  IC50: 0.0065 ± 0.0029 µM

## CN(C)c1ccc(/C=C/c2sc3ccccc3[n+]2C)cc1 [Compound 1, (E)-2-(4-(Dimethylamino)styryl)-3-methylbenzo[d]thiazol-3-ium iodide]
[1]
  IC50: 1.52 ± 0.37 µM
[3]
  IC50: 0.02 ± 0.013 µM
